Results as given in the NIST ThermoML archive (doi:10.1016/j.jct.2006.07.013).
± gives the expanded uncertainty stated by the source.

Tests used:
[1] = 298.15 K, 101.33 kPa, Liquid; for speed of sound: Sing-around technique in a fixed-path interferometer
[2] = refractive index (Na D-line) (dimensionless); conditions: 298.15 K, 101.33 kPa, Liquid

## Cc1ccccc1 [toluene]
[1]
  mass density: 862.34 ± 0.18 kg/m3
  speed of sound: 1306.3 ± 0.7 m/s
[2]; Standard Abbe refractometry
  refractive index: 1.4939 ± 0.00031

## CCCCCCC(=O)OC [methyl heptanoate]
[1]
  speed of sound: 1254.6 ± 1.2 m/s
[1]; Vibrating tube method
  mass density: 875.88 ± 0.23 kg/m3
[2]; refractometer
  refractive index: 1.40945 ± 0.00021

## CCCCOC(C)=O [butyl ethanoate]
[1]
  mass density: 876.35 ± 1.9 kg/m3
  speed of sound: 1193.1 ± 2.1 m/s
[2]; Standard Abbe refractometry
  refractive index: 1.39191 ± 0.00051

## COC(C)=O [methyl ethanoate]
[1]
  mass density: 927.36 ± 0.65 kg/m3
  speed of sound: 1154 ± 1.2 m/s
[2]; Standard Abbe refractometry
  refractive index: 1.35893 ± 0.00037
